Test results published in ChEMBL document CHEMBL1141544, “Synthesis of N-pyrimidinyl-2-phenoxyacetamides as adenosine A2A receptor antagonists” (Bioorg Med Chem Lett, 2008).
pIC50, pKi: −log10 of the molar value. Converted amounts (≈) assume the structure as drawn.

Assays:
Adenosine receptor A2a [1] = target: T1, Adenosine receptor A2a (Homo sapiens, UniProt P29274); assay: Displacement of [3H]ZM-241385 from human adenosine A2A receptor expressed in HEK293 cells; format: cell-based
Adenosine receptor A1 [2] = target: T2, Adenosine receptor A1 (Homo sapiens, UniProt P30542); assay: Displacement of [3H]DPCPX from human adenosine A1 receptor expressed in HEK293 cells; format: cell-based
T2 sequence (P30542 whole entry): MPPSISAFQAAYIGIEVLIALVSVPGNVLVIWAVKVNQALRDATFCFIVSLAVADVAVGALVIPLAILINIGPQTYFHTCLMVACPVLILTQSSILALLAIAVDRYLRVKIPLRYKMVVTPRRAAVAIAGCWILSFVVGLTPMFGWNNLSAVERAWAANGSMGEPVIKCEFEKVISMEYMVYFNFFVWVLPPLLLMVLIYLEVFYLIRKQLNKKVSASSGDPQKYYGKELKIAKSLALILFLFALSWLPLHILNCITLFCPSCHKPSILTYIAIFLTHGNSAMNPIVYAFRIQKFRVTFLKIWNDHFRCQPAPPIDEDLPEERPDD

Homo sapiens = organism: Homo sapiens; assay: Selectivity of Ki for human adenosine A2A receptor over Ki for human adenosine A1 receptor
Adenosine receptor A2a [3] = target: T1, Adenosine receptor A2a; assay: Binding affinity at adenosine A2A receptor
Cytochrome P450 3A4 = Cytochrome P450 3A4 (Homo sapiens, UniProt P08684); assay: Inhibition of CYP3A4; format: ADME
Cytochrome P450 2D6 = Cytochrome P450 2D6 (Homo sapiens, UniProt P10635); assay: Inhibition of CYP2D6; format: ADME
[4] = target: Voltage-gated inwardly rectifying potassium channel KCNH2 (Homo sapiens, UniProt Q12809); assay: Binding affinity at human ERG
[5] = Solubility at pH 5; format: physicochemical; details: buffer
Adenosine receptor A2a [6] = target: Adenosine receptor A2a (Rattus norvegicus, UniProt P30543); assay: Inhibition of rat adenosine A2A receptor
[7] = Oral bioavailability in rat; format: ADME, organism-based; details: in vivo
[8] = Volume of distribution in rat; format: ADME, organism-based; details: in vivo
[9] = Half life in rat; format: ADME, organism-based; details: in vivo
[10] = Plasma clearance in rat; format: ADME, organism-based
[11] = Drug level in rat brain after 4 hrs; format: ADME, tissue-based; details: read-out: Drug uptake
Rattus norvegicus = assay: Inhibition of haloperidol-induced catalepsy in orally dosed rat; format: functional; details: po, read-out: MED
Adenosine receptor A1 [12] = target: T2, Adenosine receptor A1; assay: Binding affinity at adenosine A1 receptor

Cytochrome P450 3A4, sequence (P08684 whole entry): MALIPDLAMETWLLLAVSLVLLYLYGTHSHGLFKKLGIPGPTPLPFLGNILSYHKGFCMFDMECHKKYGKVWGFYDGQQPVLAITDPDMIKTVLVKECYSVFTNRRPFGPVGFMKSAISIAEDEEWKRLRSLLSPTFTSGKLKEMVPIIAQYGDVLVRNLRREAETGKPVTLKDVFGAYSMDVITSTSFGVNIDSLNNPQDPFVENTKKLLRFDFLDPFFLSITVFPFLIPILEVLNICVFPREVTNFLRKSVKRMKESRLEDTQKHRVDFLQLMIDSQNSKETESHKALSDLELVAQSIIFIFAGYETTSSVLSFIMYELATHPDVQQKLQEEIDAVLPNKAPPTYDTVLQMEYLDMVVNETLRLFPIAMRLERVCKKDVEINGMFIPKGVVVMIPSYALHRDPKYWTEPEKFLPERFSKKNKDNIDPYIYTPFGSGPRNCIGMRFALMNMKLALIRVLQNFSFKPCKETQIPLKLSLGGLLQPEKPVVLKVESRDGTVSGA
T1 sequence (P29274 whole entry): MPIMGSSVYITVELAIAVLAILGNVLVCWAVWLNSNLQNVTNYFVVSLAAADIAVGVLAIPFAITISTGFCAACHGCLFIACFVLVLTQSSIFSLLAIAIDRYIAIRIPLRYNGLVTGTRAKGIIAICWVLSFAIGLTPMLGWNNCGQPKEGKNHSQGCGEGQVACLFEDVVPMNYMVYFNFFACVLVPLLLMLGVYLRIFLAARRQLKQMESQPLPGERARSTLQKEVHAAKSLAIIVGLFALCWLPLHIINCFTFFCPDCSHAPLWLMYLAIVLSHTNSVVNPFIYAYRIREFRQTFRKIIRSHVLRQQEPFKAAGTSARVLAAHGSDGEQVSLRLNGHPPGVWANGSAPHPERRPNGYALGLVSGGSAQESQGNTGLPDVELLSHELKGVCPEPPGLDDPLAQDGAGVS
Cytochrome P450 2D6, sequence (P10635 whole entry): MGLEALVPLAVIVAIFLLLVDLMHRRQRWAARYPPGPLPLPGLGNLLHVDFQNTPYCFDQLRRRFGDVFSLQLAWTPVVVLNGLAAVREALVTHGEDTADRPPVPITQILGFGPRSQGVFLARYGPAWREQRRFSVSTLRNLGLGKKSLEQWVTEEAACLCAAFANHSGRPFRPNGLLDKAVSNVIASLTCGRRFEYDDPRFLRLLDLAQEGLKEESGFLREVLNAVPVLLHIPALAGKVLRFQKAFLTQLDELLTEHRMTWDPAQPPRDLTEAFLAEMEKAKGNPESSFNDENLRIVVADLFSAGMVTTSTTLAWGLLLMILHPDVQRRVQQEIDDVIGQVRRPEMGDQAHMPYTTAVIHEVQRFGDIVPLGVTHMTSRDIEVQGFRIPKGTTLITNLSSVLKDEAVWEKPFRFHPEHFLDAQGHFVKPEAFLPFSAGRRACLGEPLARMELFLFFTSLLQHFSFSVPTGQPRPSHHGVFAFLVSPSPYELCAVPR
Voltage-gated inwardly rectifying potassium channel KCNH2, sequence (Q12809 whole entry): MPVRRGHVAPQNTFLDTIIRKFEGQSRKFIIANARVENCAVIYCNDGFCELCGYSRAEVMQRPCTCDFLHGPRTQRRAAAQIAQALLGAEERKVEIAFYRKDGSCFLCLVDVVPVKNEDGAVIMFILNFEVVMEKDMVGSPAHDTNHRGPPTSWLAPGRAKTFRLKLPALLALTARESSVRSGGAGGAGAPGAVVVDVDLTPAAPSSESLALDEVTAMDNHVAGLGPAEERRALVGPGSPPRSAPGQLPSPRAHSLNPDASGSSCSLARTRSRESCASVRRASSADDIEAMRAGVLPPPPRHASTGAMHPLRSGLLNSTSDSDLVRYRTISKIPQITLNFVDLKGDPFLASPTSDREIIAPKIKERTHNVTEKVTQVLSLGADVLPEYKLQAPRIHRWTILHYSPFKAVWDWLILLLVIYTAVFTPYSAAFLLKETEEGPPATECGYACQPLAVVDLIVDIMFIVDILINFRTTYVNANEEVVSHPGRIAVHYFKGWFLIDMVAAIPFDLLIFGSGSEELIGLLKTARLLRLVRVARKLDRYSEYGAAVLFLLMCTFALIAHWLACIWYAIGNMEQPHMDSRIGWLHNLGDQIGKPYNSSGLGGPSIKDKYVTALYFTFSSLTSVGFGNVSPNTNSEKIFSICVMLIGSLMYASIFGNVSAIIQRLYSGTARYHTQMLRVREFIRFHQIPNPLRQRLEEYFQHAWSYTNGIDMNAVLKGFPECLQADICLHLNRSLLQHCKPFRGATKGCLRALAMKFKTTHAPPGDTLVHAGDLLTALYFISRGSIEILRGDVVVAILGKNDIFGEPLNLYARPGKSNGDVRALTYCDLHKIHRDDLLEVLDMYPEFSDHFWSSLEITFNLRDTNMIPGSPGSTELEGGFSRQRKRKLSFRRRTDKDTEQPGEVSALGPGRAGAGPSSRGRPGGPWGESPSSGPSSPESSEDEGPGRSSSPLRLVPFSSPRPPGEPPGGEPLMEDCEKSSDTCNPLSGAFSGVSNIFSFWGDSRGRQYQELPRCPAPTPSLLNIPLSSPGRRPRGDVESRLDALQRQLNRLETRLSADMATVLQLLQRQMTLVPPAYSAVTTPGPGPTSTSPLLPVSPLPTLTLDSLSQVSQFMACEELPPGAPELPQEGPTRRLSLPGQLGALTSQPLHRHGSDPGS
Adenosine receptor A2a (Rattus norvegicus, UniProt P30543), sequence (P30543 whole entry): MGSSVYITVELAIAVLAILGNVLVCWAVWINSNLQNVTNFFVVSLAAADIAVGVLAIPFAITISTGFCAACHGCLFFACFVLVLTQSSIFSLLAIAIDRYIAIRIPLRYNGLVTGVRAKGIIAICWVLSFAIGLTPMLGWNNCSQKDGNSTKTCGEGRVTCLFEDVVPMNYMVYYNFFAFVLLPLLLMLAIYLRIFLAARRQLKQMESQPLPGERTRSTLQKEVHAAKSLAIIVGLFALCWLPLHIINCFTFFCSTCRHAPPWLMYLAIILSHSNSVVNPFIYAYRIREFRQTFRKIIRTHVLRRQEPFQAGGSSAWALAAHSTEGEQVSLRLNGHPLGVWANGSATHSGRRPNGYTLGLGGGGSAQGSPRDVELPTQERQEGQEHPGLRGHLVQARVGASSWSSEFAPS

pKi (Adenosine receptor A2a [1]) | pKi (Adenosine receptor A1 [2]) | Compound | also measured
9.70 | 7.00 | COc1cc(CN(C)C)ccc1OCC(=O)Nc1cc(-n2nc(C)cc2C)nc(-c2ccc(C)o2)n1 | 
8.24 | 5.85 | COc1cccc(CN(C)C)c1OCC(=O)Nc1cc(-n2nc(C)cc2C)nc(-c2ccc(C)o2)n1 | 
9.00 | 6.57 | Cc1ccc(OCC(=O)Nc2cc(-n3nc(C)cc3C)nc(-c3ccc(C)o3)n2)c(CN(C)C)c1 | 
9.52 | 7.17 | CCNCc1cccc(OCC(=O)Nc2cc(-n3nc(C)cc3C)nc(-c3ccc(C)o3)n2)c1 | Ratio Ki (Homo sapiens): 100; pKi (Adenosine receptor A2a [3]): 9.52
8.85 | 6.32 | Cc1cc(C)n(-c2cc(NC(=O)COc3cc(F)cc(CN4CCOCC4)c3)nc(-c3ccc(C)o3)n2)n1 | 
9.15 | 6.13 | Cc1cc(OCC(=O)Nc2cc(-n3nc(C)cc3C)nc(-c3ccc(C)o3)n2)cc(C)n1 | pIC50 (Cytochrome P450 3A4): 5.96; pIC50 (Cytochrome P450 2D6): 7.30
9.00 | 6.57 | Cc1cc(C)n(-c2cc(NC(=O)COc3ccccc3CN(C)C)nc(-c3ccc(C)o3)n2)n1 | 
8.43 | 5.01 | Cc1cc(C)n(-c2cc(NC(=O)COc3cccc(F)c3)nc(-c3ccc(C)o3)n2)n1 | Ratio Ki (Homo sapiens): 2600; solubility [5]: 0.08 mg/mL (≈ 190 µM)
< 5.00 | 4.60 | Cc1cc(C)n(-c2cc(NC(=O)COc3cccc(C#N)c3)nc(-c3ccc(C)o3)n2)n1 | 
9.52 | 6.82 | COc1cc(OCC(=O)Nc2cc(-n3nc(C)cc3C)nc(-c3ccc(C)o3)n2)ccc1CN(C)C | 
9.40 | 7.22 | Cc1cc(C)n(-c2cc(NC(=O)COc3cccc(CN(C)C)c3)nc(-c3ccc(C)o3)n2)n1 | solubility [5]: 0.21 mg/mL (≈ 456 µM); pIC50 (Cytochrome P450 3A4): < 5.22; pIC50 (Cytochrome P450 2D6): < 5.22; pKi (Adenosine receptor A2a [6]): 8.03; bioavailability [7]: 19%; Vd [8]: 20 L/kg; half-life [9]: 48 min; clearance [10]: 19.8 L/h/kg; concentration at 4 h [11]: 360 ng/g; minimal effective dose (Rattus norvegicus): 10 mg/kg
9.15 | 7.14 | Cc1cc(C)n(-c2cc(NC(=O)COc3cccc(CN)c3)nc(-c3ccc(C)o3)n2)n1 | Ratio Ki (Homo sapiens): 100; pKi (Adenosine receptor A2a [3]): 9.15
9.05 | 6.70 | COc1ccc(OCC(=O)Nc2cc(-n3nc(C)cc3C)nc(-c3ccc(C)o3)n2)c(CN(C)C)c1 | pIC50 (Cytochrome P450 3A4): 5.80
9.30 | 6.92 | Cc1cc(C)n(-c2cc(NC(=O)COc3cc(F)cc(CN4CCCC4)c3)nc(-c3ccc(C)o3)n2)n1 | 
8.12 | 6.19 | Cc1ccc(-c2nc(NC(=O)COc3ccccc3F)cc(-c3nccs3)n2)o1 | Ratio Ki (Homo sapiens): 87
7.44 | 5.68 | Cc1ccc(OCC(=O)Nc2cc(-c3nccs3)nc(-c3ccc(C)o3)n2)cc1 | 
9.30 | 7.11 | Cc1cc(C)n(-c2cc(NC(=O)COc3cccc(CCN(C)C)c3)nc(-c3ccc(C)o3)n2)n1 | 
9.52 | 6.92 | Cc1cc(C)n(-c2cc(NC(=O)COc3ccc(CN(C)C)cc3)nc(-c3ccc(C)o3)n2)n1 | 
9.52 | 7.17 | CCN(C)Cc1cccc(OCC(=O)Nc2cc(-n3nc(C)cc3C)nc(-c3ccc(C)o3)n2)c1 | Ratio Ki (Homo sapiens): 100; pKi (Adenosine receptor A2a [3]): 9.52
9.30 | 6.85 | Cc1cc(C)n(-c2cc(NC(=O)COc3cc(F)cc(CN(C)C)c3)nc(-c3ccc(C)o3)n2)n1 | 

The remaining lines, values behind:

Compound | pKi (Adenosine receptor A2a [1]) | pKi (Adenosine receptor A1 [2]) | also measured
Cc1ccc(-c2nc(NC(=O)COc3cccc(Cl)c3)cc(-c3nccs3)n2)o1 | 7.85 | 5.82 | 
Cc1ccc(-c2nc(NC(=O)COc3cccc(C#N)c3)cc(-c3nccs3)n2)o1 | 8.17 | 5.37 | 
O=C(COc1cccc(F)c1)Nc1cc(-c2nccs2)nc(-c2ccccn2)n1 | 8.44 | 6.74 | 
Cc1cc(C)n(-c2cc(NC(=O)COc3ccccc3CCN3CCOCC3)nc(-c3ccc(C)o3)n2)n1 | 8.92 | 5.92 | pKi [4]: 6.74
Cc1cc(C)n(-c2cc(NC(=O)COc3cccc(CCN4CCOCC4)c3)nc(-c3ccc(C)o3)n2)n1 | 8.64 | 6.27 | 
N#Cc1cccc(OCC(=O)Nc2cc(-c3nccs3)nc(-c3ccccn3)n2)c1 | 8.74 | 7.06 | 
CC(=O)Nc1cc(-n2cccn2)nc(-c2ccco2)n1 |  |  | Ratio Ki (Homo sapiens): 17; pKi (Adenosine receptor A2a [3]): 9.22
Cc1ccc(-c2nc(NC(=O)COc3ccc(F)cc3)cc(-c3nccs3)n2)o1 | < 5.00 | 5.89 | 
Cc1ccc(-c2nc(NC(=O)COc3cccc(F)c3)cc(-c3nccs3)n2)o1 | 7.96 | 5.66 | 
Cc1ccc(-c2nc(NC(=O)CCc3ccccc3F)cc(-c3nccs3)n2)o1 |  |  | Ratio Ki (Homo sapiens): 26; pKi (Adenosine receptor A2a [3]): 7.80; pKi (Adenosine receptor A1 [12]): 6.39
Cc1cc(C)nc(OCC(=O)Nc2cc(-n3nc(C)cc3C)nc(-c3ccc(C)o3)n2)n1 | 8.43 | 7.02 | 
Cc1cc(C)n(-c2cc(NC(=O)COc3cccc(CN4CCOCC4)c3)nc(-c3ccc(C)o3)n2)n1 | 8.92 | 6.22 | Ratio Ki (Homo sapiens): 500
Cc1ccc(-c2nc(NC(=O)COc3ccccc3)cc(-c3nccs3)n2)o1 | 8.13 | 5.96 | 
